What was measured:
Type in all cases: in vivo
[1] = system: large crabgrass (Digitaria sanguinalis); experiment: Test A pre-/postemergence plant response
Procedure, shortened: (§1)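 Seeds were planted in blended loam soil and sand, then treated preemergence by directed soil spray. At that time, emerged plants (one- to two-leaf, 2–10 cm) received postemergence applications of the same surfactant-containing formulation. Injury was assessed visually on a 0–100 scale after approximately 10 days.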

[2] = system: morningglory (Ipomoea coccinea); experiment: Test A pre-/postemergence plant response
Procedure, shortened: as §1

[3] = system: velvetleaf (Abutilon theophrasti); experiment: Test A pre-/postemergence plant response
Procedure, shortened: as §1

[4] = system: barnyardgrass (Echinochloa crus-galli); experiment: Test A pre-/postemergence plant response
Procedure, shortened: as §1

[5] = system: giant foxtail (Setaria faberi); experiment: Test A pre-/postemergence plant response
Procedure, shortened: as §1

[6] = system: pigweed (Amaranthus retroflexus); experiment: Test A pre-/postemergence plant response
Procedure, shortened: as §1

[7] = system: corn (Zea mays); experiment: Test A pre-/postemergence plant response
Procedure, shortened: as §1

[8] = system: wheat (Triticum aestivum); experiment: Test A pre-/postemergence plant response
Procedure, shortened: as §1

[9] = system: barnyardgrass (Echinochloa crus-galli); experiment: Test B flooded paddy test plant response
Procedure, shortened: (§2)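 Paddy-water application to 2-leaf plants in pots held under 3 cm of flooding; response is a 0–100 visual control rating against controls after 13 to 15 days, and a dash marks a missing result.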

[10] = system: umbrella sedge (Cyperus difformis); experiment: Test B flooded paddy test plant response
Procedure, shortened: as §2

[11] = system: rice (Oryza sativa); experiment: Test B flooded paddy test plant response
Procedure, shortened: as §2

[12] = system: ducksalad (Heteranthera limosa); experiment: Test B flooded paddy test plant response
Procedure, shortened: as §2

[13] = system: canarygrass (Phalaris minor); experiment: Test B postemergence plant response; settings: for Plant response rating, Canarygrass: Postemergence; for Canarygrass plant response rating: 8 g ai/ha, postemergence, 0-100 scale
Procedure, shortened: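 Scoring: 0 means no effect and 100 complete control, judged by eye against controls after 13–15 days under greenhouse conditions following postemergence application at 2–18 cm plant height.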

[14] = Postemergence, 125 g ai/ha, 0 to 100 scale, 0 no effect, 100 complete control
[15] = Postemergence, 500 g ai/ha, 0 to 100 scale, 0 no effect, 100 complete control
[16] = Preemergence, 125 g ai/ha, 0 to 100 scale (0 no effect, 100 complete control)
[17] = Preemergence, 500 g ai/ha, 0 to 100 scale (0 no effect, 100 complete control)
[18] = Flood (flooded paddy test), 62 g ai/ha, scale 0 to 100, 0 no effect, 100 complete control
[19] = Flood (flooded paddy test), 125 g ai/ha, scale 0 to 100, 0 no effect, 100 complete control
[20] = Flood (flooded paddy test), 250 g ai/ha, scale 0 to 100, 0 no effect, 100 complete control
[21] = Flood, 31 g ai/ha, scale 0 to 100
[22] = 31 g ai/ha, scale 0 to 100, 0 no effect, 100 complete control
[23] = Postemergence, 31 g ai/ha, 0 to 100 scale, 0 no effect, 100 complete control
[24] = Preemergence, 31 g ai/ha, 0 to 100 scale, 0 is no effect, 100 is complete control
[25] = 62 g ai/ha, scale 0 to 100, 0 no effect, 100 complete control

CCc1cc(-c2ccc(C(F)(F)F)cc2)nn1-c1c(O)c(C)nn(C)c1=O [Compound 16] was tested, and the “Plant response rating, Crabgrass, Large” value [1, 14] was 90, the “Plant response rating, Crabgrass, Large” value [1, 15] was 100 and the “Plant response rating, Crabgrass, Large” value [1, 16] was 90. For the same compound, the “Plant response rating, Crabgrass, Large” value [1, 17] was 100, the “Plant response rating, Morningglory” value [2, 14] was 0 and the “Plant response rating, Morningglory” value [2, 15] was 0. The “Plant response rating, Morningglory” value [2, 16] was 0, the “Plant response rating, Morningglory” value [2, 17] was 0 and the “Plant response rating, Velvetleaf” value [3, 14] was 0. The “Plant response rating, Velvetleaf” value [3, 15] was 0, the “Plant response rating, Velvetleaf” value [3, 16] was 0 and the “Plant response rating, Velvetleaf” value [3, 17] was 0. For the same compound, the “Plant response rating, Barnyardgrass” value [4, 14] was 90, the “Plant response rating, Barnyardgrass” value [4, 15] was 100 and the “Plant response rating, Barnyardgrass” value [4, 16] was 100. The “Plant response rating, Barnyardgrass” value [4, 17] was 100, the “Plant response rating, Foxtail, Giant” value [5, 14] was 100 and the “Plant response rating, Foxtail, Giant” value [5, 15] was 100. For the same compound, the “Plant response rating, Foxtail, Giant” value [5, 16] was 100, the “Plant response rating, Foxtail, Giant” value [5, 17] was 100 and the “Plant response rating, Pigweed” value [6, 14] was 0. The “Plant response rating, Pigweed” value [6, 15] was 0, the “Plant response rating, Pigweed” value [6, 16] was 0 and the “Plant response rating, Pigweed” value [6, 17] was 0. The “Plant response rating, Corn” value [7, 14] was 90, the “Plant response rating, Corn” value [7, 15] was 100 and the “Plant response rating, Corn” value [7, 16] was 70. The “Plant response rating, Corn” value [7, 17] was 90, the “Plant response rating, Wheat” value [8, 14] was 70 and the “Plant response rating, Wheat” value [8, 15] was 90. The “Plant response rating, Wheat” value [8, 16] was 70, the “Plant response rating, Wheat” value [8, 17] was 100 and the “Plant response rating, Barnyardgrass” value [9, 18] was 20. For the same compound, the “Plant response rating, Barnyardgrass” value [9, 19] was 40, the “Plant response rating, Barnyardgrass” value [9, 20] was 60 and the “Plant response rating, Barnyardgrass” value [9, 21] was 15. For the same compound, the “Plant response rating, Sedge, Umbrella” value [10, 18] was 30, the “Plant response rating, Sedge, Umbrella” value [10, 19] was 30 and the “Plant response rating, Sedge, Umbrella” value [10, 20] was 45. For the same compound, the “Plant response rating, Sedge, Umbrella” value [10, 21] was 0, the “Plant response rating, Rice” value [11, 18] was 20 and the “Plant response rating, Rice” value [11, 19] was 45. For the same compound, the “Plant response rating, Rice” value [11, 20] was 80, the “Plant response rating, Rice” value [11, 21] was 0 and the “Plant response rating, Ducksalad” value [12, 18] was 0. The “Plant response rating, Ducksalad” value [12, 19] was 0, the “Plant response rating, Ducksalad” value [12, 20] was 0 and the “Plant response rating, Ducksalad” value [12, 21] was 0. The “Plant response rating, Canarygrass” value [13, 22] was 70 and the “Plant response rating, Canarygrass” value ([13]; 62 g ai/ha, scale 0 to 100) was 95.

With Cn1ncc(O)c(-n2nc(-c3ccc(Cl)cc3)cc2C2CC2)c1=O [Compound 45] the “Plant response rating, Crabgrass, Large” value [1, 23] was 40, the “Plant response rating, Crabgrass, Large” value [1, 14] was 100 and the “Plant response rating, Crabgrass, Large” value [1, 24] was 30. For the same compound, the “Plant response rating, Crabgrass, Large” value [1, 16] was 90, the “Plant response rating, Morningglory” value [2, 23] was 0 and the “Plant response rating, Morningglory” value [2, 14] was 0. The “Plant response rating, Morningglory” value [2, 24] was 0, the “Plant response rating, Morningglory” value [2, 16] was 0 and the “Plant response rating, Velvetleaf” value [3, 23] was 0. For the same compound, the “Plant response rating, Velvetleaf” value [3, 14] was 0, the “Plant response rating, Velvetleaf” value [3, 24] was 0 and the “Plant response rating, Velvetleaf” value [3, 16] was 0. For the same compound, the “Plant response rating, Barnyardgrass” value [4, 23] was 80, the “Plant response rating, Barnyardgrass” value [4, 14] was 100 and the “Plant response rating, Barnyardgrass” value [4, 24] was 90. The “Plant response rating, Barnyardgrass” value [4, 16] was 100, the “Plant response rating, Foxtail, Giant” value [5, 23] was 90 and the “Plant response rating, Foxtail, Giant” value [5, 14] was 100. For the same compound, the “Plant response rating, Foxtail, Giant” value [5, 24] was 90, the “Plant response rating, Foxtail, Giant” value [5, 16] was 100 and the “Plant response rating, Pigweed” value [6, 23] was 0. For the same compound, the “Plant response rating, Pigweed” value [6, 14] was 0, the “Plant response rating, Pigweed” value [6, 24] was 0 and the “Plant response rating, Pigweed” value [6, 16] was 0. The “Plant response rating, Corn” value [7, 23] was 40, the “Plant response rating, Corn” value [7, 14] was 80 and the “Plant response rating, Corn” value [7, 24] was 0. The “Plant response rating, Corn” value [7, 16] was 60, the “Plant response rating, Wheat” value [8, 23] was 70 and the “Plant response rating, Wheat” value [8, 14] was 90. For the same compound, the “Plant response rating, Wheat” value [8, 24] was 50, the “Plant response rating, Wheat” value [8, 16] was 80 and the “Plant response rating, Barnyardgrass” value [9, 18] was 20. For the same compound, the “Plant response rating, Barnyardgrass” value [9, 19] was 60, the “Plant response rating, Barnyardgrass” value [9, 20] was 65 and the “Plant response rating, Barnyardgrass” value [9, 21] was 20. For the same compound, the “Plant response rating, Sedge, Umbrella” value [10, 18] was 0, the “Plant response rating, Sedge, Umbrella” value [10, 19] was 0 and the “Plant response rating, Sedge, Umbrella” value [10, 20] was 65. The “Plant response rating, Sedge, Umbrella” value [10, 21] was 0, the “Plant response rating, Rice” value [11, 18] was 0 and the “Plant response rating, Rice” value [11, 19] was 45. The “Plant response rating, Rice” value [11, 20] was 45, the “Plant response rating, Rice” value [11, 21] was 0 and the “Plant response rating, Ducksalad” value [12, 18] was 0. For the same compound, the “Plant response rating, Ducksalad” value [12, 19] was 0, the “Plant response rating, Ducksalad” value [12, 20] was 75 and the “Plant response rating, Ducksalad” value [12, 21] was 0. The “Canarygrass plant response rating” value [13] was 0, the “Plant response rating, Canarygrass” value ([13]; 16 g ai/ha, scale 0 to 100) was 0 and the “Plant response rating, Canarygrass” value ([13]; 31 g ai/ha, scale 0 to 100) was 0. The “Plant response rating, Canarygrass” value [13, 25] was 0.

In the case of Cc1cc(-c2ccc(Cl)cc2)nn1-c1c(OC(=O)c2ccccc2Cl)cnn(C)c1=O [Compound 38], the “Plant response rating, Crabgrass, Large” value [1, 23] is reported as 40, the “Plant response rating, Crabgrass, Large” value [1, 14] is reported as 100 and the “Plant response rating, Crabgrass, Large” value [1, 24] is reported as 90. The “Plant response rating, Crabgrass, Large” value [1, 16] was 100, the “Plant response rating, Morningglory” value [2, 23] was 0 and the “Plant response rating, Morningglory” value [2, 14] was 0. For the same compound, the “Plant response rating, Morningglory” value [2, 24] was 0, the “Plant response rating, Morningglory” value [2, 16] was 0 and the “Plant response rating, Velvetleaf” value [3, 23] was 0. For the same compound, the “Plant response rating, Velvetleaf” value [3, 14] was 0, the “Plant response rating, Velvetleaf” value [3, 24] was 0 and the “Plant response rating, Velvetleaf” value [3, 16] was 0. The “Plant response rating, Barnyardgrass” value [4, 23] was 40, the “Plant response rating, Barnyardgrass” value [4, 14] was 100 and the “Plant response rating, Barnyardgrass” value [4, 24] was 90. For the same compound, the “Plant response rating, Barnyardgrass” value [4, 16] was 100, the “Plant response rating, Foxtail, Giant” value [5, 23] was 80 and the “Plant response rating, Foxtail, Giant” value [5, 14] was 90. For the same compound, the “Plant response rating, Foxtail, Giant” value [5, 24] was 90, the “Plant response rating, Foxtail, Giant” value [5, 16] was 100 and the “Plant response rating, Pigweed” value [6, 23] was 0. For the same compound, the “Plant response rating, Pigweed” value [6, 14] was 0, the “Plant response rating, Pigweed” value [6, 24] was 0 and the “Plant response rating, Pigweed” value [6, 16] was 0. For the same compound, the “Plant response rating, Corn” value [7, 23] was 20, the “Plant response rating, Corn” value [7, 14] was 90 and the “Plant response rating, Corn” value [7, 24] was 0. For the same compound, the “Plant response rating, Corn” value [7, 16] was 70, the “Plant response rating, Wheat” value [8, 23] was 0 and the “Plant response rating, Wheat” value [8, 14] was 60. For the same compound, the “Plant response rating, Wheat” value [8, 24] was 20, the “Plant response rating, Wheat” value [8, 16] was 60 and the “Plant response rating, Barnyardgrass” value [9, 18] was 95. The “Plant response rating, Barnyardgrass” value [9, 19] was 95, the “Plant response rating, Barnyardgrass” value [9, 20] was 95 and the “Plant response rating, Barnyardgrass” value [9, 21] was 20. For the same compound, the “Plant response rating, Sedge, Umbrella” value [10, 19] was 70, the “Plant response rating, Sedge, Umbrella” value [10, 20] was 70 and the “Plant response rating, Sedge, Umbrella” value [10, 21] was 20. The “Plant response rating, Rice” value [11, 18] was 75, the “Plant response rating, Rice” value [11, 19] was 75 and the “Plant response rating, Rice” value [11, 20] was 85. The “Plant response rating, Rice” value [11, 21] was 0, the “Plant response rating, Ducksalad” value [12, 19] was 30 and the “Plant response rating, Ducksalad” value [12, 20] was 40. For the same compound, the “Plant response rating, Ducksalad” value [12, 21] was 40, the “Canarygrass plant response rating” value [13] was 0 and the “Plant response rating, Canarygrass” value ([13]; 16 g ai/ha, scale 0 to 100) was 0. The “Plant response rating, Canarygrass” value [13, 22] was 10 and the “Plant response rating, Canarygrass” value [13, 25] was 30.

Reference: patent US20100267561A1, “HERBICIDAL PYRIDAZINONE DERIVATIVES” (priority 2007, published 2010)
